Laboratory results published in patent publication US10238632B2, “Sigma receptor-binding agent” (FUJIFILM Toyama Chemical Co., Ltd., priority 2015, dated 2019).

What was measured:
BZD (central) receptor = assay: Receptor binding assay, BZD (central); conditions: rat cerebral cortex, compound A at 10 μM, [3H] flunitrazepam (0.4 nM), 60 min./4° C.
Description: (§1) The compound A was tested for ability to bind to 21 types of receptors. […]
(§2) The inhibition rate of the compound A for each radioligand was calculated by the following equation. 100−([measured specific binding]/[control specific binding]×100) Equation: […]
(§3) In the equation, the measured specific binding indicates the amount of binding radioactivity of each radioligand under the presence of the compound A and the corresponding reference compound, and the control specific binding indicates the amount of binding radioactivity of each radioligand under the presence of the corresponding reference compound.

GABAA receptor = assay: Receptor binding assay, GABAA; conditions: rat cerebral cortex, compound A at 10 μM, [3H] muscimol (5 nM), 10 min./4° C.
Description: as §1, §2, §3

NMDA receptor = assay: Receptor binding assay, NMDA; conditions: rat cerebral cortex, compound A at 10 μM, [3H] CGP 39653 (5 nM), 60 min./4° C.
Description: as §1, §2, §3

M2 (h) receptor = target: T1, M2 (h) receptor (Homo sapiens, UniProt P08172); assay: Receptor binding assay, M2 (h); conditions: human recombinant (CHO cells), compound A at 10 μM, [3H] AF-DX 384 (2 nM), 60 min./22° C.
T1 construct: expressed in transfected cells; host or cells: CHO cells
T1 sequence (P08172 whole entry): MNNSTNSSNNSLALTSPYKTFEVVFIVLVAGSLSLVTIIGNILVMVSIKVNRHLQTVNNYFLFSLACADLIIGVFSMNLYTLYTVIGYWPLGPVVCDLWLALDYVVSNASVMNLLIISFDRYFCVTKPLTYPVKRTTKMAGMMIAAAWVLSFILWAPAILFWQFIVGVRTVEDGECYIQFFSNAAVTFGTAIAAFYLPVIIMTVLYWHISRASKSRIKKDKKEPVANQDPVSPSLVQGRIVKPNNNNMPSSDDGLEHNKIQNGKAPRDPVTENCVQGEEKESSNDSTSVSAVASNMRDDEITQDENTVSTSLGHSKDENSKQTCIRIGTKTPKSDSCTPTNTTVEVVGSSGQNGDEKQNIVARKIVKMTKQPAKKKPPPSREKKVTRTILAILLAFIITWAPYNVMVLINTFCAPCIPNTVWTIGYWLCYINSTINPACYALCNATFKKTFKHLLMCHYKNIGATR
Description: as §1, §2, §3

H1 (h) receptor = target: T2, H1 (h) receptor (Homo sapiens, UniProt P35367); assay: Receptor binding assay, H1 (h); conditions: human recombinant (HEK-293 cells), compound A at 10 μM, [3H] pyrilamine (3 nM), 60 min./22° C., read-out: Inhibition rate of compound A for radioligand (%)
T2 construct: expressed in transfected cells; host or cells: HEK-293 cells
T2 sequence (P35367 whole entry): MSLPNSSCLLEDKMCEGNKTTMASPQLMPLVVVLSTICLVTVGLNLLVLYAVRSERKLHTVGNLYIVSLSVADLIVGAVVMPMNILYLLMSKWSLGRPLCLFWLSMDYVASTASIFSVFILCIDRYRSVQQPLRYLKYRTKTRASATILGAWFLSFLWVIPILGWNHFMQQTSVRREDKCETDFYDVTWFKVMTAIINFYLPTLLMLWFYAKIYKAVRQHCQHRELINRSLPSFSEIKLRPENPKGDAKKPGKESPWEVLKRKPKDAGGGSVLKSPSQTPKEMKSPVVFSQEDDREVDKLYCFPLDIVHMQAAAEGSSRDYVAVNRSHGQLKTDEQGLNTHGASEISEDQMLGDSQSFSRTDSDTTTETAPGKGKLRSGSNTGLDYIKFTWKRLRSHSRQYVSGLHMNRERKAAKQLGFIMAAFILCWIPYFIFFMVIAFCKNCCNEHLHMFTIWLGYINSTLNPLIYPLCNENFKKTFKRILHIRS
Description: as §1, §2, §3

[1] = target: T3, sigma-2 receptors expressed in Jurkat cells (Homo sapiens, UniProt Q5BJF2); assay: Identification of sigma-2 receptor inhibition constant; format: binding; conditions: 25 nM [3H] DTG under the presence of 1 μM (+)-pentazocine, room temperature for 60 minutes, Cheng-Prusoff equation
T3 construct: In the sigma-2 receptors expressed in Jurkat cells; endogenous in cells; host or cells: Jurkat cells
T3 sequence (Q5BJF2 whole entry): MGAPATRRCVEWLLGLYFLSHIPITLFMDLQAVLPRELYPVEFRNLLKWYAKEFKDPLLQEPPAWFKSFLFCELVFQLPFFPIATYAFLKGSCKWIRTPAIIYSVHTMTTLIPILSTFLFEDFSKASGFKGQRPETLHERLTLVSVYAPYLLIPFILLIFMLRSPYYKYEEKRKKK
Description: The sigma-2 receptor inhibition constant of the compound A (Ki value) was identified. The test was conducted by a method described below in accordance with Ganapathy, M. E. (1999).
DTG under the presence of 1 μM (+)-pentazocine. The reaction was conducted at room temperature for 60 minutes. The inhibition rate was calculated in the same manner as described in Test Example 1. The Ki value was identified in accordance with the Cheng-Prusoff equation by calculating IC50 based on nonlinear regression analysis.

D1 receptor = target: T4, D1 receptor (Rattus norvegicus, UniProt P18901); assay: Receptor binding assay, D1; conditions: rat striatum, compound A at 10 μM, [3H] SCH 23390 (0.3 nM), 45 min./22° C.
T4 construct: rat striatum; from tissue; host or cells: rat striatum
T4 sequence (P18901 whole entry): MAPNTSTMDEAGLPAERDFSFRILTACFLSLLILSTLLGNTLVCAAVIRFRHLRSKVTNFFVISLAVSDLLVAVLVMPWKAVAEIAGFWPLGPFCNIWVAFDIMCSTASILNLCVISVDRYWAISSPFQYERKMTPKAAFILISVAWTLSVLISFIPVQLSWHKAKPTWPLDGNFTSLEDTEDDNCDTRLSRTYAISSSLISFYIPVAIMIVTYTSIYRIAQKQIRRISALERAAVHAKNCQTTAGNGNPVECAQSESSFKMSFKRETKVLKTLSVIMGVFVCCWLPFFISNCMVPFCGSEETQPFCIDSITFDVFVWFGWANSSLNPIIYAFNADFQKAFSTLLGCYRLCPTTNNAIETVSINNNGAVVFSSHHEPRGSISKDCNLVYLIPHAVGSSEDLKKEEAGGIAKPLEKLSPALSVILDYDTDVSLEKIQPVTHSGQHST
Description: as §1, §2, §3

D2 receptor = target: T5, D2 receptor (Rattus norvegicus, UniProt P61169); assay: Receptor binding assay, D2; conditions: rat striatum, compound A at 10 μM, [3H] YM-09151-2 (0.1 nM), 60 min./22° C.
T5 construct: rat striatum; from tissue; host or cells: rat striatum
T5 sequence (P61169 whole entry): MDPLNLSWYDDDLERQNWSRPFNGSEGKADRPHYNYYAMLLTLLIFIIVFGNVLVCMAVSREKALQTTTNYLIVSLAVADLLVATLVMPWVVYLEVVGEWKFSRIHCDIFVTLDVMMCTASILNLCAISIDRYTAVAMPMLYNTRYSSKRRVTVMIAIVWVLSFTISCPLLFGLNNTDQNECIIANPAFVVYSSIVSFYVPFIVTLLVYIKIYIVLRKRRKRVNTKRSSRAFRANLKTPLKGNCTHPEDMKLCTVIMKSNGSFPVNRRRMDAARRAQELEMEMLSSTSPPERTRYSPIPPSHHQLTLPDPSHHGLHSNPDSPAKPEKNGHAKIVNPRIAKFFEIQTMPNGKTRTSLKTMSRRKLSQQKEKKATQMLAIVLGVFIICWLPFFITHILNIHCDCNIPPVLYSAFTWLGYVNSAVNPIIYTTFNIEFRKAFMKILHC
Description: as §1, §2, §3

β2 receptor = target: T6, β2 receptor (Cavia porcellus, UniProt Q8K4Z4); assay: Receptor binding assay, β2; conditions: guinea-pig lung, compound A at 10 μM, [3H] (−)CGP 12177 (+10 nM CGP 20712A) (0.4 nM), 40 min./22° C., read-out: Inhibition rate of compound A for radioligand (%)
T6 construct: guinea-pig lung; from tissue; host or cells: guinea-pig lung
T6 sequence (Q8K4Z4 whole entry): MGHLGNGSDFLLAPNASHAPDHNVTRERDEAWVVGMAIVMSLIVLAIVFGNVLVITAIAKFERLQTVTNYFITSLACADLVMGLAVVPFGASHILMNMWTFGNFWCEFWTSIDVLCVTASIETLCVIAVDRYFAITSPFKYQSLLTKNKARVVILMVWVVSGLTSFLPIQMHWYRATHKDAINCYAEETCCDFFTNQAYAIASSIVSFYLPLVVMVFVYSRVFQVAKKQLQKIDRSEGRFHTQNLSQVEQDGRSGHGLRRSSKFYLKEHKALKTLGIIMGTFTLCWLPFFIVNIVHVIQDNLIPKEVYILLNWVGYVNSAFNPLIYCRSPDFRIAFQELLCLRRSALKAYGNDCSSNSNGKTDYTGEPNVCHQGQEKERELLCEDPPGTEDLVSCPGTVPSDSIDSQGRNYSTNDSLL
Description: as §1, §2, §3

[2] = system: α1 (non-selective) receptor; assay: Receptor binding assay, α1 (non-selective); conditions: rat cerebral cortex, compound A at 10 μM, [3H] prazosin (0.25 nM), 60 min./22° C
Description: as §1, §2, §3

AT2 (h) receptor = target: T7, AT2 (h) receptor (Homo sapiens, UniProt P50052); assay: Receptor binding assay, AT2 (h); conditions: human recombinant (Hela cells), compound A at 10 μM, [3H] GCP 42112A (0.05 nM), 180 min./37° C., read-out: Inhibition rate of compound A for radioligand (%)
T7 construct: expressed in transfected cells; host or cells: Hela cells
T7 sequence (P50052 whole entry): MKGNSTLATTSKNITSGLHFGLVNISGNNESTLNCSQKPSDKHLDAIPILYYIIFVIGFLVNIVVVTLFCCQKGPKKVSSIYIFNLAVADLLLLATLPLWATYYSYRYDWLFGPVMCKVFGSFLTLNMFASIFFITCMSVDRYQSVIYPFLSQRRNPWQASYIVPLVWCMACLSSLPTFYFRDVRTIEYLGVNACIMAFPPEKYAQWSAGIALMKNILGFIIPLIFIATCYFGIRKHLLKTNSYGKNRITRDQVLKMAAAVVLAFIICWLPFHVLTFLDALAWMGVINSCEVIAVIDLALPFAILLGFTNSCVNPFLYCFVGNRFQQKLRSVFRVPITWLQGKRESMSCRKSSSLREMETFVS
Description: as §1, §2, §3

H2 receptor = target: T8, H2 receptor (Cavia porcellus, UniProt P47747); assay: Receptor binding assay, H2; conditions: guinea-pig striatum, compound A at 10 μM, [3H] APT (0.1 nM), 150 min/22° C., read-out: Inhibition rate of compound A for radioligand (%)
T8 construct: guinea-pig striatum; from tissue; host or cells: guinea-pig striatum
T8 sequence (P47747 whole entry): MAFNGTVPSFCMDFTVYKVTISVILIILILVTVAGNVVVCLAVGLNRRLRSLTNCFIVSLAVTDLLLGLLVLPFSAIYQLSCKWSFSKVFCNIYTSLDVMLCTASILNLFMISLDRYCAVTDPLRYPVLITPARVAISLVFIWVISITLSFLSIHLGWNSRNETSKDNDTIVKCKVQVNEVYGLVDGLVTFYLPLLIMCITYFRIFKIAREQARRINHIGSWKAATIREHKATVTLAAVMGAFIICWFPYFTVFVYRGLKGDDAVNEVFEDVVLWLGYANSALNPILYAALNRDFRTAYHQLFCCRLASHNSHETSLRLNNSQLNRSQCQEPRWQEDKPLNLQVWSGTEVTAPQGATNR
Description: as §1, §2, §3

[3] = system: σ (non-selective) receptor; assay: Receptor binding assay, σ (non-selective); conditions: rat cerebral cortex, compound A at 10 μM, [3H] DTG (8 nM), 120 min./22° C.
Description: as §1, §2, §3

[4] = target: T9, sigma-1 receptors expressed in Jurkat cells (Homo sapiens, UniProt Q99720); assay: Identification of sigma-1 receptor inhibition constant; format: binding; conditions: 15 nM [3H] (+)-pentazocine, 37° C. for 120 minutes, Cheng-Prusoff equation
T9 construct: In the sigma-1 receptors expressed in Jurkat cells; endogenous in cells; host or cells: Jurkat cells
T9 sequence (Q99720 whole entry): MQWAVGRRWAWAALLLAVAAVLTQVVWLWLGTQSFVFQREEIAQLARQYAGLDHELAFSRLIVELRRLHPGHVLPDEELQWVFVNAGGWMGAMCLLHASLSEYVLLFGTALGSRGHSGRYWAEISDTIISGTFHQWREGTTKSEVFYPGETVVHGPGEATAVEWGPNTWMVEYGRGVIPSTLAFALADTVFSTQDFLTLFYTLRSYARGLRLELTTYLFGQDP
Description: The sigma-1 receptor inhibition constant of the compound A (Ki value) was identified. The test was conducted by a method described below in accordance with Ganapathy, M. E. (1999).
(+)-pentazocine. The reaction was conducted at 37° C. for 120 minutes. The inhibition rate was calculated in the same manner as described in Test Example 1. The Ki value was identified in accordance with the Cheng-Prusoff equation by calculating IC50 based on nonlinear regression analysis.

[5] = system: 5-HT (non-selective) receptor; assay: Receptor binding assay, 5-HT (non-selective); conditions: rat cerebral cortex, compound A at 10 μM, [3H] serotonin (2 nM), 15 min./37° C.
Description: as §1, §2, §3

[6] = system: N (neuronal) (α-BGTX-insensitive) receptor; assay: Receptor binding assay, N (neuronal) (α-BGTX-insensitive); conditions: rat cerebral cortex, compound A at 10 μM, [3H] cytisine (1.5 nM), 75 min./4° C.
Description: as §1, §2, §3

M1 receptor = target: T10, M1 receptor (Rattus norvegicus, UniProt P08482); assay: Receptor binding assay, M1; conditions: rat cerebral cortex, compound A at 10 μM, [3H] pirenzepine (1 nM), 60 min./22° C., read-out: Inhibition rate of compound A for radioligand (%)
T10 construct: rat cerebral cortex; from tissue; host or cells: rat cerebral cortex
T10 sequence (P08482 whole entry): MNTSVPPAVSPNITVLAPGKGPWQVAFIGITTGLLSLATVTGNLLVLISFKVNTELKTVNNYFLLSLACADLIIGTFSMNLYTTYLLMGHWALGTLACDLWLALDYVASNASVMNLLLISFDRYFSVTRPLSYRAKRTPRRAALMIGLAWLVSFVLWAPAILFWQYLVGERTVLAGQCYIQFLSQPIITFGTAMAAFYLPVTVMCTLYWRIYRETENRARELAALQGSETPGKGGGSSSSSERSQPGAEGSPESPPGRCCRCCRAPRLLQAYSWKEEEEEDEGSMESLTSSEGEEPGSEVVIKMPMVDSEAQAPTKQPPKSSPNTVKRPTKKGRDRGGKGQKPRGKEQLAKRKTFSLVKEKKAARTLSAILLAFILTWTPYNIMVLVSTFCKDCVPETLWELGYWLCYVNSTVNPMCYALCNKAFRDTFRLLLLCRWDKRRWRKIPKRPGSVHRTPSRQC
Description: as §1, §2, §3

[7] = system: α2 (non-selective) receptor; assay: Receptor binding assay, α2 (non-selective); conditions: rat cerebral cortex, compound A at 10 μM, [3H] RX 821002 (0.5 nM), 30 min./22° C.
Description: as §1, §2, §3

TH receptor = assay: Receptor binding assay, TH; conditions: rat liver, compound A at 10 μM, [125I] T3 (0.1 nM), 18 h/4° C.
Description: as §1, §2, §3

AT1 (h) receptor = target: T11, AT1 (h) receptor (Homo sapiens, UniProt P30556); assay: Receptor binding assay, AT1 (h); conditions: human recombinant (CHO cells), compound A at 10 μM, [125I] [Sar1, Ile5]-AT II (0.05 nM), 60 min./37° C., read-out: Inhibition rate of compound A for radioligand (%)
T11 construct: expressed in transfected cells; host or cells: CHO cells
T11 sequence (P30556 whole entry): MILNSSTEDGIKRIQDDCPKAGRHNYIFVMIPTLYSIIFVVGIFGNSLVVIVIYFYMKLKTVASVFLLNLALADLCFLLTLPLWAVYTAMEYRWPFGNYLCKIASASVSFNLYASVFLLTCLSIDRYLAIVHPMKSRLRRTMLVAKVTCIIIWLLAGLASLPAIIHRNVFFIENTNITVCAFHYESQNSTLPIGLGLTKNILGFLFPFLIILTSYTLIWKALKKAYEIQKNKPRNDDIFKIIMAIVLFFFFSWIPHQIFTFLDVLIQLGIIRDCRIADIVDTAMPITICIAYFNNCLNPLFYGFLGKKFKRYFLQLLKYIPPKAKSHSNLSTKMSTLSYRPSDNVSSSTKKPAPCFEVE
Description: as §1, §2, §3

TRH receptor = assay: Receptor binding assay, TRH; conditions: rat cerebral cortex, compound A at 10 μM, [3H] Me-TRH (2 nM), 6 h/4° C.
Description: as §1, §2, §3

GABAB receptor = target: T12, GABAB receptor (Rattus norvegicus, UniProt Q9Z0U4); assay: Receptor binding assay, GABAB; conditions: rat cerebral cortex, compound A at 10 μM, [3H] GABA (+40 μM isoguvacine) (10 nM), 10 min./22° C., read-out: Inhibition rate of compound A for radioligand (%)
T12 construct: rat cerebral cortex; from tissue; host or cells: rat cerebral cortex
Description: as §1, §2, §3

With `O=C(O)/C=C\C(=O)O.OC1CN(CCCOCCc2ccc3sccc3c2)C1` [compound A, 1-(3-(2-(1-benzothiophene-5-yl)ethoxy)propyl)azetidine-3-ol maleate] the “Inhibition rate of compound A for radioligand (%)” value (from here on “Inhibition rate … (%)”) (BZD (central) receptor) was 25%, the “Inhibition rate … (%)” value (GABAA receptor) was −8% and the “Inhibition rate … (%)” value (NMDA receptor) was 16%. For the same compound, the “Inhibition rate … (%)” value (M2 (h) receptor) was 19%, the inhibition at 10 µM (H1 (h) receptor) was -15% and the Ki [1] was 160 nM. For the same compound, the “Inhibition rate … (%)” value (D1 receptor) was 1%, the “Inhibition rate … (%)” value (D2 receptor) was 21% and the inhibition at 10 µM (β2 receptor) was 5%. For the same compound, the “Inhibition rate … (%)” value [2] was 36%, the inhibition at 10 µM (AT2 (h) receptor) was -13% and the inhibition at 10 µM (H2 receptor) was 72%. For the same compound, the “Inhibition rate … (%)” value [3] was 99%, the Ki [4] was 16 nM and the “Inhibition rate … (%)” value [5] was 2%. For the same compound, the “Inhibition rate … (%)” value [6] was 12%, the inhibition at 10 µM (M1 receptor) was 43% and the “Inhibition rate … (%)” value [7] was 40%. The “Inhibition rate … (%)” value (TH receptor) was −5%, the inhibition at 10 µM (AT1 (h) receptor) was -2% and the “Inhibition rate … (%)” value (TRH receptor) was 1%. The inhibition at 10 µM (GABAB receptor) was 4%.
